Reference: PubChem BioAssay (NCI)
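96-well plates; 48 h exposure; 5 concentrations. Endpoints by linear interpolation between flanking doses. Not reached: highest tested concentration assigned. Here, GI50 denotes the concentration required for 50% inhibition of growth. TGI is the concentration that stops growth completely.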

Assays:
Assay in all cases: NCI anticancer screen, dose series, 48 h
SK-MEL-28 melanoma = tested on: SK-MEL-28 melanoma
M14 melanoma = tested on: M14 melanoma
NCI-H23 lung = tested on: NCI-H23 lung
SK-MEL-5 melanoma = tested on: SK-MEL-5 melanoma
NCI-H522 lung = tested on: NCI-H522 lung
NCI-H460 lung = tested on: NCI-H460 lung
OVCAR-8 ovarian = tested on: OVCAR-8 ovarian
RPMI-8226 leukemia = tested on: RPMI-8226 leukemia
T-47D breast = tested on: T-47D breast
SF-268 CNS = tested on: SF-268 CNS

## O=C(Nc1ccccc1Cl)c1cnc2ccc(C3CCNCC3)cn12
SK-MEL-28 melanoma
  GI50: 18.4 µM
  TGI: 43.3 µM
M14 melanoma
  GI50: 15.2 µM
  TGI: 33.3 µM
NCI-H23 lung
  GI50: 74.5 µM
  TGI: > 100 µM
SK-MEL-5 melanoma
  GI50: 13 µM
  TGI: 26.6 µM
NCI-H522 lung
  GI50: 1.06 µM
  TGI: > 100 µM
NCI-H460 lung
  GI50: > 87.3 µM
  TGI: > 100 µM
OVCAR-8 ovarian
  GI50: 13.5 µM
  TGI: > 100 µM
RPMI-8226 leukemia
  GI50: > 69 µM
  TGI: > 100 µM
T-47D breast
  GI50: 5.53 µM
  TGI: > 100 µM
SF-268 CNS
  GI50: 9.04 µM
  TGI: > 100 µM

## CNC(=O)c1cc(Oc2ccc3nc(NC(=O)Nc4ccc(Cl)c(Cl)c4)sc3c2)ccn1
SK-MEL-28 melanoma
  GI50: 1.74 µM
  TGI: 3.56 µM
M14 melanoma
  GI50: 2.13 µM
  TGI: 4.74 µM
NCI-H23 lung
  GI50: 2.78 µM
  TGI: > 100 µM
SK-MEL-5 melanoma
  GI50: 2.24 µM
  TGI: 5.58 µM
NCI-H522 lung
  GI50: 4.09 µM
  TGI: > 100 µM
NCI-H460 lung
  GI50: 2.43 µM
  TGI: 5.32 µM
OVCAR-8 ovarian
  GI50: 2.36 µM
  TGI: 5.27 µM
RPMI-8226 leukemia
  GI50: 3.66 µM
  TGI: > 100 µM
T-47D breast
  GI50: 2.65 µM
  TGI: 6.36 µM
SF-268 CNS
  GI50: 1.98 µM
  TGI: 4.21 µM

## CCN(CC)c1ccc(/C=N/NC(=O)c2ccc(Nc3ccnc(C(F)(F)F)c3)cc2)c(O)c1
SK-MEL-28 melanoma
  GI50: 0.32 µM
  TGI: > 27.3 µM
M14 melanoma
  GI50: 0.25 µM
  TGI: 1.42 µM
NCI-H23 lung
  GI50: 0.428 µM
  TGI: 9.8 µM
SK-MEL-5 melanoma
  GI50: 0.412 µM
  TGI: 1.71 µM
NCI-H522 lung
  GI50: 0.293 µM
  TGI: 2.07 µM
NCI-H460 lung
  GI50: 0.212 µM
  TGI: 1.48 µM
OVCAR-8 ovarian
  GI50: 0.322 µM
  TGI: > 33 µM
RPMI-8226 leukemia
  GI50: 0.12 µM
  TGI: 0.555 µM
T-47D breast
  GI50: 0.332 µM
  TGI: 3.7 µM
SF-268 CNS
  GI50: 0.155 µM
  TGI: > 20.7 µM

## COc1ccc(C2CC(=O)Nc3c2c(C)nn3-c2nc3ccccc3[nH]2)cc1 (stereo not given)
SK-MEL-28 melanoma
  GI50: 3.92 µM
  TGI: > 55.9 µM
M14 melanoma
  GI50: 2.54 µM
  TGI: 7.12 µM
NCI-H23 lung
  GI50: 2.57 µM
  TGI: 6.83 µM
SK-MEL-5 melanoma
  GI50: 1.82 µM
  TGI: 3.71 µM
NCI-H522 lung
  GI50: 2.67 µM
  TGI: 7.15 µM
NCI-H460 lung
  GI50: 2.39 µM
  TGI: 5.89 µM
OVCAR-8 ovarian
  GI50: 3.76 µM
  TGI: > 100 µM
RPMI-8226 leukemia
  GI50: 2.41 µM
  TGI: 5.48 µM
T-47D breast
  GI50: 3.92 µM
  TGI: > 41.9 µM
SF-268 CNS
  GI50: 3.86 µM
  TGI: 97.7 µM

## CC1(C)OC2C(CO)OC(n3ccc(=O)[nH]c3=O)C2O1 (stereo not given)
SK-MEL-28 melanoma
  TGI: > 100 µM
M14 melanoma
  TGI: > 100 µM
NCI-H23 lung
  TGI: > 100 µM
SK-MEL-5 melanoma
  TGI: > 100 µM
NCI-H522 lung
  TGI: > 100 µM
NCI-H460 lung
  TGI: > 100 µM
OVCAR-8 ovarian
  TGI: > 100 µM
RPMI-8226 leukemia
  TGI: > 100 µM
T-47D breast
  TGI: > 100 µM
SF-268 CNS
  TGI: > 100 µM

## O=C(O)CC(Cc1ccc2c(c1)OCO2)C(=O)O (stereo not given)
SK-MEL-28 melanoma
  TGI: > 100 µM
M14 melanoma
  TGI: > 100 µM
NCI-H23 lung
  TGI: > 100 µM
SK-MEL-5 melanoma
  TGI: > 100 µM
NCI-H522 lung
  TGI: > 100 µM
NCI-H460 lung
  TGI: > 100 µM
OVCAR-8 ovarian
  TGI: > 100 µM
RPMI-8226 leukemia
  TGI: > 100 µM
T-47D breast
  TGI: > 100 µM
SF-268 CNS
  TGI: > 100 µM

## c1ccc(-c2nc(Nc3ccc(-c4nc5ccccc5[nH]4)cc3)nc(N3CCOCC3)n2)cc1
SK-MEL-28 melanoma
  GI50: 1.56 µM
  TGI: 3.09 µM
M14 melanoma
  GI50: 1.34 µM
  TGI: 2.9 µM
NCI-H23 lung
  GI50: 2.07 µM
  TGI: 4.78 µM
SK-MEL-5 melanoma
  GI50: 1.69 µM
  TGI: 3.15 µM
NCI-H522 lung
  GI50: 2.1 µM
  TGI: 3.92 µM
NCI-H460 lung
  GI50: 0.822 µM
  TGI: 2.46 µM
OVCAR-8 ovarian
  GI50: 1.72 µM
  TGI: 3.41 µM
RPMI-8226 leukemia
  GI50: 1.11 µM
  TGI: 4.23 µM
T-47D breast
  GI50: 1.62 µM
  TGI: 3.82 µM
SF-268 CNS
  GI50: 1.64 µM
  TGI: 3.24 µM

## N#C/C(=C\c1cn(-c2ccccc2)c2ccccc12)C(=O)O
SK-MEL-28 melanoma
  GI50: 33.9 µM
  TGI: > 100 µM
M14 melanoma
  GI50: 61.2 µM
  TGI: > 100 µM
NCI-H23 lung
  GI50: 35.7 µM
  TGI: > 100 µM
SK-MEL-5 melanoma
  GI50: 38.4 µM
  TGI: > 100 µM
NCI-H522 lung
  GI50: 29 µM
  TGI: 88.8 µM
NCI-H460 lung
  GI50: 30 µM
  TGI: > 100 µM
OVCAR-8 ovarian
  GI50: 44.6 µM
  TGI: > 100 µM
RPMI-8226 leukemia
  GI50: 43 µM
  TGI: > 100 µM
T-47D breast
  GI50: 29.6 µM
  TGI: > 100 µM
SF-268 CNS
  GI50: 43.4 µM
  TGI: > 100 µM
